# Data published in US8232278B2 (Gilead Sciences, Inc., priority 2005, dated 2012).
# Like-named read-outs stand apart in the source and are kept apart here.
# Tests used:
# [1] = test system: wild-type HIV-1 strain IIIB; assay: HIV-1 assay (XTT, HIV-induced cytopathic effect in MT-2 cells); assay type: cell-based; conditions: for inhibition at 5 µM: read-out: MT2 HIV % inhib. @ 5 μM
# Method: This assay is based on the quantification of the HIV-induced cytopathic effect by a calorimetric detection of the viability of virus-infected cells in the presence or absence of tested inhibitors. The HIV-induced cell death was determined by using as a metabolic substrate 2,3-bis(2-methoxy-4-nitro-5-sulfophenyl)-2H-tetrazolium-5-carboxanilide (hereinafter referred as XTT) which was converted only by live cells into a product with specific absorption characteristics, as described by Weislow et al., J. Natl. Cancer Inst. (1989) 81:577.
# The assay protocol for the determination of EC50 includes the following steps: • 1. MT-2 cells were maintained in RPMI-1640 medium supplemented with 10% fetal bovine serum, glutamine and antibiotics. • 2. Cells were infected by the wild-type HIV-1 strain IIIB (ABI, Columbia, Md.) for 3 hours at 37° C. using a multiplicity of infection (MOI) of 0.01. • 3. Prepare a set of solutions containing various concentrations of the tested inhibitor by making 5-fold serial dilutions in 96-well plate (100 μl/well). Alternatively, test single drug concentration (100 μl/well). Distribute the infected cells into the 96-well plate containing the inhibitors (20,000 cells in 100 μl/well). Include the following control samples, untreated infected cells (100% cell death) and control drug-treated infected cells (full protection). • 4. Incubate the cells for 5 days at 37° C. • 5. Prepare XTT solution (6 mL per assay plate) at a concentration of 2 mg/mL in a phosphate-buffered saline at pH 7.4. Heat the solution in water-bath for 10 minutes at 56° C. Add 50 μl of N-methylphenazonium methasulfate (5 μg/mL) per 6 mL of XTT solution. • 6. Remove 100 μl media from each well on the assay plate. • 7. Add 100 μl of the XTT substrate solution per well and incubate at 37° C. for 45 to 60 minutes in a CO2 incubator. • 8. Add 20 μl of 2% Triton X-100 per well to inactivate the virus. • 9. Read the absorbance at 450 nm with subtracting off the background absorbance at 650 nm. • 10. Plot the percentage absorbance relative to untreated control and estimate the EC50 value as drug concentration resulting in a 50% protection of the infected cells. Alternatively, calculate the percentage of inhibition for a fixed concentration, relative to the full protection with the control drug.
# This assay has been performed on a set of compounds of the invention, and results are reported in table 8 below, also indicating the nature of substituents being present in positions 4 and 6 of the pyrido[3,2-d]pyrimidine derivatives of the invention (all being amino-substituted in position 2).
# HCV replicon = assay: Anti-HCV assay / replicon assay (EC50, luciferase read-out); assay type: cell-based, hepatitis C virus (HCV); conditions: for CC50/EC50: CC50/EC50 ratio (selectivity index)
# Method in brief: (§1)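 Huh-7 cells carrying an HCV replicon, 6000 per well, were exposed to 3-fold serial compound dilutions (0.5% DMSO final where DMSO was used) for 3 days at 37 °C. EC50 was read by luciferase after cell lysis; CC50 was taken as 50% inhibition of cell growth.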
# Huh-7 HCV replicon cells = assay: CC50 assay in Huh-7 HCV replicon cells (CellTiter-Glo); assay type: cell-based, human; conditions: 3 days, 50% cytostatic concentration
# Method in brief: as §1
# [2] = CC50 assay in Huh-7 HCV replicon cells (CellTiter-Glo); assay type: cell-based, human; conditions: human, 50% cytostatic concentration
# Method in brief: as §1
# [3] = Human immunodeficiency virus 1, MT2, 120 h, 5 μM, MT-2 cells infected with HIV-1 IIIB, 5 days, XTT
# [4] = Hepatitis C virus, 72 h, human hepatoma Huh-7 cell line harbouring a HCV replicon, 3 days, luciferase luminescence, read-out: EC50
Compound,"inhibition at 5 µM [1, 3] [%]",CC50/EC50 (HCV replicon),EC50 (HCV replicon; [4]) [µM],CC50 (Huh-7 HCV replicon cells) [µM],CC50 at 3 days [2] [µM],also measured
"CC(=O)Nc1ccc(-c2ccc3nc(N)nc(N4CCN(C(C)=O)CC4)c3n2)cc1 [Example 340, 2-amino-4-(N-acetylpiperazino)-6-(p-acetamidophenyl)-pyrido(3,2-d)pyrimidine]",4,–,–,–,–,–
"CCOCCOc1nc(N)nc2ccc(-c3cccc(F)c3)nc12 [Example 303, 2-amino-4-(2-ethoxyethoxy)-6-(3-fluorophenyl)-pyrido[3,2-d]pyrimidine]",8,89,0.56,50.1,–,melting point: 165 °C
"COc1ccc(-c2ccc3nc(N)nc(N4CCN(C)CC4)c3n2)cc1OC [Example 36, 2-amino-4-(N-methyl-piperazino)-6-(3,4-dimethoxyphenyl)-pyrido[3,2-d]pyrimidine]",3,–,–,–,–,–
"CCOCCOc1nc(N)nc2ccc(-c3ccccc3F)nc12 [Example 302, 2-amino-4-(2-ethoxyethoxy)-6-(2-fluorophenyl)-pyrido[3,2-d]pyrimidine]",–,–,–,–,–,melting point: 163 °C
"CCOc1nc(N)nc2ccc(-c3ccc(NC(C)=O)cc3)nc12 [Example 353, 2-amino-4-ethoxy-6-(p-acetamidophenyl)pyrido(3,2-d)pyrimidine]",4,56,0.45,–,25.1,–
"Nc1nc(OCc2ccccc2)c2nc(-c3ccc(F)cc3)ccc2n1 [Example 211, 2-amino-4-benzyloxy-6-(p-fluorophenyl)-pyrido[3,2-d]pyrimidine]",17,179,0.21,–,37.5,–
"CCOc1nc(N)nc2ccc(-c3ccc(F)cc3)nc12 [Example 281, 2-amino-4-ethoxy-6-(p-fluorophenyl)pyrido[3,2-d]-pyrimidine]",17,856,0.059,50.1,–,–
"Nc1nc(OCc2ccccc2)c2nc(-c3cccc(F)c3)ccc2n1 [Example 210, 2-amino-4-benzyloxy-6-(m-fluorophenyl)-pyrido[3,2-d]pyrimidine]",–,85,–,–,18.8,"EC50 (HCV replicon; Hepatitis C virus, Huh-7, 72 h): 0.22 µM; inhibition at 5 µM ([1]; Human immunodeficiency virus 1, IIIB, MT2, 120 h): 5%"
"CCOCCOc1nc(N)nc2ccc(-c3ccc(F)cc3)nc12 [Example 304, 2-amino-4-(2-ethoxyethoxy)-6-(4-fluorophenyl)-pyrido[3,2-d]pyrimidine]",9,852,0.044,–,37.5,melting point: 192 °C
"6-(3,4-difluoro-phenyl)-4-ethoxy-pyrido[3,2-d]pyrimidin-2-ylamine [Example 460]",–,145,–,16.3,–,"EC50 (HCV replicon; human hepatoma Huh-7 cell line harbouring a HCV replicon, 3 days, luciferase luminescence, read-out: EC50): 0.113 µM; MT2 HIV % inhib. @ 5 μM ([1]; 5 μM, MT-2 cells infected with HIV-1 IIIB, 5 days, XTT): 11%"
"COCCOc1nc(N)nc2ccc(-c3ccc(F)cc3)nc12 [Example 305, 2-amino-4-(2-methoxyethoxy)-6-(4-fluorophenyl)-pyrido[3,2-d]pyrimidine]",–,2863,0.018,50.1,–,melting point: 204 °C
"Nc1nc(N2CCOCC2)c2nc(-c3ccncc3)ccc2n1 [Example 226, 2-amino-4-morpholino-6-(4-pyridinyl)-pyrido[3,2-d]pyrimidine]",9,–,–,–,–,–
"CC(C)Oc1nc(N)nc2ccc(-c3ccc(F)cc3)nc12 [Example 286, 2-amino-4-isopropoxy-6-(p-fluorophenyl)-pyrido[3,2-d]pyrimidine]",11,1113,0.045,50.1,–,–
"CC(=O)N1CCN(c2nc(N)nc3ccc(-c4ccc(F)cc4)nc23)CC1 [Example 320, 2-amino-4-(N-acetylpiperazino)-6-(4-fluorophenyl)-pyrido[3,2-d]pyrimidine]",12,87,0.23,–,19.9,–
